Experimental findings from patent publication US4874752A, “Benzoquinone derivatives and production thereof” (Takeda Chemical Industries, Ltd., priority 1982, dated 1989) are described below.

Counter-ions that a name gives are not always drawn.

The target in this experiment is T1, protocollagen-proline hydroxylase (Gallus gallus, UniProt P16924).
T1 construct: partially purified enzyme preparation obtained from chick embryos; from tissue; host or cells: chick embryos (partially purified enzyme)
T1 sequence (P16924 1-516): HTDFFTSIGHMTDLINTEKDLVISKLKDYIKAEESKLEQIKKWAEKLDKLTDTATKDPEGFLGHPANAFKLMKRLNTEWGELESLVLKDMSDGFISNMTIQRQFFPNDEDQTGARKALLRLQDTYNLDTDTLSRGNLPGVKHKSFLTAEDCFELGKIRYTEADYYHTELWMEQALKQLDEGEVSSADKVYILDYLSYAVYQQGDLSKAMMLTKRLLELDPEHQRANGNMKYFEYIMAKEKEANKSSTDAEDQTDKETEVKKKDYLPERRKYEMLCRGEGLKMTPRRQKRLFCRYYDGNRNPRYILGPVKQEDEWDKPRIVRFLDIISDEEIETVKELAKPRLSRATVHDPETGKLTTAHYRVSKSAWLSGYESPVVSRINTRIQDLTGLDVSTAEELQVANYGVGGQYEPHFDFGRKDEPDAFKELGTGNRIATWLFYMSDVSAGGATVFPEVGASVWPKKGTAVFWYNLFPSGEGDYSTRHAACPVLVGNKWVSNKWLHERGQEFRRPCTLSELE
T1 sequence (P09102 23-515 partner): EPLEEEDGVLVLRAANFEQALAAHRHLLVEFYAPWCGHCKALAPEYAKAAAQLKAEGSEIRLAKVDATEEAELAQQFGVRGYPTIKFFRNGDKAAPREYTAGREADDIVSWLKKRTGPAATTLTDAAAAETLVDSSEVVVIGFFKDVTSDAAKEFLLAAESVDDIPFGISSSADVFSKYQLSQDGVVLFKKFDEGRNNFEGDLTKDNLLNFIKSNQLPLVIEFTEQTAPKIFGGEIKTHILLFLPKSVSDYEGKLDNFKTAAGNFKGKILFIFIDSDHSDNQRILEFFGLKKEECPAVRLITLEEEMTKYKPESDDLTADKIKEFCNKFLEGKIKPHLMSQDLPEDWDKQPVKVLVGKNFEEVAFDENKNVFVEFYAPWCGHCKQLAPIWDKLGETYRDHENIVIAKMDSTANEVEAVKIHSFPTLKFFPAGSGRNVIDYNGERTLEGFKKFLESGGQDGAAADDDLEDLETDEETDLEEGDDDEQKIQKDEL
Description: Inhibitory activity of protocollagen-proline hydroxylase. The format is biochemical, chick embryos. An excerpt:
Determination of this inhibitory activity was made by the method of R. E. Rhoads et al. [Methods in Enzymology XVII B, 306 (1971)] using a partially purified enzyme preparation obtained from chick embryos in accordance with the methods of K. I. Kivirriko et al. and J. Halme et al. [J. Biol, Chem. 242, 4007 (1967) and Biochim. Biophys. Acta 198, 460 (1967)] and, as a substrate, (Pro-Pro-Gly)5.4H2 O[prepared by the Protein Research Foundation, Osaka]. In this procedure, the partially purified enzyme was used in an amount of 100 μg as protein.

Take `COC1=C(OC)C(=O)C(CCCCCCCCCC(=O)N[C@@H](Cc2c[nH]c3ccccc23)C(=O)O)=C(C)C1=O` [m:0, n:9, Z:COTrp, 10-(2,3-dimethoxy-5-methyl-1,4-benzoquinon-6-yl)decanoyl-L-tryptophan]: the inhibition (as a rule, the relative decrease from the control value, in per cent) at 20 µM amounted to 15%.

For `COC1=C(OC)C(=O)C(CCOc2ccc(CC(=O)O)cc2)=C(C)C1=O`, the inhibition at 2.5 µM is 64%, the inhibition at 5 µM was determined as 74%, the inhibition at 20 µM is 100% and testing at 50 µM gave an inhibition of 100%. For the same compound, for the setting “10 μM”, the “Inhibition of protocollagen-proline hydroxylase” value came to 82% and 10 µM produced 100% inhibition.

`COC1=C(OC)C(=O)C(CCCCCCCCCC(=O)N2CSCC2C(=O)O)=C(C)C1=O` (stereo not drawn): the inhibition at 20 µM stood at 35%.

In turn, `COC1=C(OC)C(=O)C(/C=C/C(=O)O)=C(C)C1=O` [drawing 25] registered an inhibition at 2.5 µM of 0%, an inhibition at 5 µM of 22%, an inhibition at 20 µM of 46% and an inhibition at 50 µM of 68%. Moreover, the inhibition at 10 µM (10 μM) turned out to be 37%.

`COC1=C(OC)C(=O)C(CCCCCCCCCC(=O)N[C@@H](CCSC)C(=O)O)=C(C)C1=O` [m:0, n:9, Z:COMet, 10-(2,3-dimethoxy-5-methyl-1,4-benzoquinon-6-yl)decanoyl-L-methionine] showed an inhibition at 20 µM of 38%.

In turn, `COC1=C(OC)C(=O)C(CN2CCOCC2)=C(C)C1=O` gave an inhibition at 20 µM of 78%.

`COC1=C(OC)C(=O)C(CCC(=O)N[C@@H](Cc2ccc(O)cc2)C(=O)O)=C(C)C1=O` [m:0, n:2, Z:COTyr, 3-(2,3-dimethoxy-5-methyl-1,4-benzoquinon-6-yl)propionyl-L-tyrosine]: the inhibition at 20 µM came to 35%.

For `COC1=C(OC)C(=O)C(CCC(=O)N[C@@H](CCC(=O)O)C(=O)O)=C(C)C1=O` [m:0, n:2, Z:COGlu, 3-(2,3-dimethoxy-5-methylbenzoquinon-6-yl)propionyl-L-glutamic acid], the inhibition at 20 µM turned out to be 20%.

The compound `COC1=C(OC)C(=O)C(CCC(=O)N[C@@H](C)C(=O)O)=C(C)C1=O` [m:0, n:2, Z:CoAla, 3-(2,3-dimethoxy-5-methyl-1,4-benzoquinon-6-yl)propionyl-L-alanine] came in with an inhibition at 20 µM of 32%.

In the case of `COC1=C(OC)C(=O)C(CCCCCCCCCCN2CCOCC2)=C(C)C1=O`, under “25 μM”, the inhibition at 25 µM turned out to be 30%.

The compound `COC1=C(OC)C(=O)C(CCCCCCCCCC(=O)N[C@H]2C(O)O[C@H](CO)[C@@H](O)[C@@H]2O)=C(C)C1=O` (stereo partly drawn) [m:0, n:9, Z:COGlcN, N-[10-(2,3-dimethoxy-5-methyl-1,4-benzoquinon-6-yl)decanoyl]glucosamine] came in with an inhibition at 20 µM of 52%.

The compound `COC1=C(OC)C(=O)C(CCC(=O)N[C@@H](CCCNC(=N)N)C(=O)O)=C(C)C1=O` [m:0, n:2, Z:COArg (salt of acetic acid), 3-(2,3-dimethoxy-5-methyl-1,4-benzoquinon-6-yl)propionyl-L-arginine] registered an inhibition at 20 µM of 56%.

In turn, `COC(=O)/C=C/C=C/C=C/C=C/C1=C(C)C(=O)C(OC)=C(OC)C1=O` displayed an inhibition at 20 µM of 67% and an inhibition at 50 µM of 76%. For the same compound, for the setting “10 μM”, the inhibition at 10 µM was 38%.

Compound `COC1=C(OC)C(=O)C(CCCCCCCCCC(=O)N[C@@H](CCCNC(=N)N)C(=O)O)=C(C)C1=O` [m:0, n:9, Z:COArg (salt of acetic acid), 10-(2,3-dimethoxy-5-methyl-1,4-benzoquinon-6-yl)decanoyl-L-arginine] registered an inhibition at 20 µM of 52%.

Turning to `COC1=C(OC)C(=O)C(CCCCCCCCCC(=O)N[C@@H](CCCCN)C(=O)O)=C(C)C1=O` [m:0, n:9, Z:COLys, 10-(2,3-dimethoxy-5-methyl-1,4-benzoquinon-6-yl)decanoyl-L-lysine], 20 µM produced 25% inhibition.

For `COC1=C(OC)C(=O)C(CCCCCCCCCC(=O)N[C@@H](Cc2c[nH]cn2)C(=O)O)=C(C)C1=O` [m:0, n:9, Z:COHis, 10-(2,3-dimethoxy-5-methyl-1,4-benzoquinon-6-yl)decanoyl-L-histidine], 20 µM produced 52% inhibition.
